According to patent US10383859B2, “Benzo[d]thiazole derivative or salt thereof, and pharmaceutical composition including same” (Yuhan Corporation, priority 2016, dated 2019):

System: A549 cells
Assay: Cell migration assay (24-well transwell, laminin)
Type: cell-based, human
Conditions: Homo sapiens, A549, 6 h, laminin 10 μg/mL in lower well, test compounds 0.39˜100 μM, migrated cells counted, read-out: Inhibitory activity against cell migration
In short: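 Serum-free RPMI1640 transwell (8.0 μm pore) with laminin (10 μg/mL) in lower well; A549 cells (1×10^6 cells/mL) and compounds (0.39–100 μM) in both chambers, 6 h at 37 °C. Hematoxylin-stained cells on membrane underside counted at three fields (×20); IC50 by non-linear regression.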

| IC50 [µM] | Compound |
| --- | --- |
| > 10 | COc1ccc(CCN(c2nc3ccc(F)c(F)c3s2)C(C)c2ccc(C(=O)O)cc2)cc1 (centres unmarked) [Example 104, 4-(1-{(6,7-difluorobenzo[d]thiazol-2-yl)[2-(4-methoxyphenyl)ethyl]amino}ethyl)benzoic acid] |
| > 10 | COc1ccc(CCN(c2nc3ccc(C)c(F)c3s2)C(C)c2ccc(C(=O)O)cc2)cc1 (centres unmarked) [Example 105, 4-(1-{(7-fluoro-6-methyl-benzo[d]thiazol-2-yl)[2-(4-methoxyphenyl)ethyl]amino}ethyl)benzoic acid] |
| > 10 | COc1ccc(CCN(c2nc3cccc(C(F)(F)F)c3s2)C(C)c2ccc(C(=O)O)cc2)cc1 (centres unmarked) [Example 106, 4-(1-{[2-(4-methoxyphenyl)ethyl][7-(trifluoromethyl)-benzo[d]thiazol-2-yl]amino}ethyl)benzoic acid] |
| > 10 | COc1ccc(CCN(c2nc3cc(Cl)ccc3s2)C(C)c2ccc(C(=O)O)cc2)cc1 (centres unmarked) [Example 107, 4-(1-{(5-chloro-benzo[d]thiazol-2-yl)[2-(4-methoxyphenyl)ethyl]amino}ethyl)benzoic acid] |
| > 10 | COc1ccc(CCN(c2nc3ccc(Cl)cc3s2)C(C)c2ccc(C(=O)O)cc2)cc1 (centres unmarked) [Example 108, 4-(1-{(6-chloro-benzo[d]thiazol-2-yl)[2-(4-methoxyphenyl)ethyl]amino}ethyl)benzoic acid] |
| < 1 | COc1ccc(CCN(c2nc3cccc(Cl)c3s2)C(C)c2ccc(C(=O)O)cc2)cc1 (centres unmarked) [Example 109, 4-(1-{(7-chloro-benzo[d]thiazol-2-yl)[2-(4-methoxyphenyl)ethyl]amino}ethyl)benzoic acid] |
| > 10 | COc1ccc(CCN(c2nc3cccc(C)c3s2)C(C)c2ccc(C(=O)O)cc2)cc1 (centres unmarked) [Example 110, 4-(1-{[2-(4-methoxyphenyl)ethyl](7-methyl-benzo[d]thiazol-2-yl)amino}ethyl)benzoic acid] |
| > 10 | COc1ccc(CCN(c2nc3ccc(C)cc3s2)C(C)c2ccc(C(=O)O)cc2)cc1 (centres unmarked) [Example 111, 4-(1-{[2-(4-methoxyphenyl)ethyl](6-methyl-benzo[d]thiazol-2-yl)amino}ethyl)benzoic acid] |
| > 10 | COc1ccc(CCN(c2nc3cc(C)ccc3s2)C(C)c2ccc(C(=O)O)cc2)cc1 (centres unmarked) [Example 112, 4-(1-{[2-(4-methoxyphenyl)ethyl](5-methyl-benzo[d]thiazol-2-yl)amino}ethyl)benzoic acid] |
| > 10 | COc1ccc(CCN(c2nc3cc(F)ccc3s2)C(C)c2ccc(C(=O)O)cc2)cc1 (centres unmarked) [Example 113, 4-(1-{(5-fluorobenzo[d]thiazol-2-yl)[2-(4-methoxyphenyl)ethyl]amino}ethyl)benzoic acid] |
| > 10 | COc1ccc(CCN(c2nc3c(F)cc(F)cc3s2)C(C)c2ccc(C(=O)O)cc2)cc1 (centres unmarked) [Example 114, 4-(1-{(4,6-difluorobenzo[d]thiazol-2-yl)[2-(4-methoxyphenyl)ethyl]amino}ethyl)benzoic acid] |
| > 10 | COc1ccc(CCN(Cc2ccc(C(=O)O)cc2)c2nc3ccc(Br)cc3s2)cc1 [Example 115, 4-({(6-bromo-benzo[d]thiazol-2-yl)[2-(4-methoxyphenyl)ethyl]amino}methyl)benzoic acid] |
| > 10 | COc1ccc(CCN(c2nc3ccc(Br)cc3s2)C(C)c2ccc(C(=O)O)cc2)cc1 (centres unmarked) [Example 116, 4-(1-{(6-bromo-benzo[d]thiazol-2-yl)[2-(4-methoxyphenyl)ethyl]amino}ethyl)benzoic acid] |
| > 10 | COc1ccc(CCN(Cc2ccc(C(=O)O)cc2)c2nc3ccc(C(=O)O)cc3s2)cc1 [Example 117, 2-{(4-carboxybenzyl)[2-(4-methoxyphenyl)ethyl]amino}benzo[d]thiazole-6-carboxylic acid] |
| > 10 | COc1ccc(CCN(Cc2ccc(C(=O)O)cc2)c2nc3cccc(C(=O)O)c3s2)cc1 [Example 118, 2-{(4-carboxybenzyl)[2-(4-methoxyphenyl)ethyl]amino}benzo[d]thiazole-7-carboxylic acid] |
| > 10 | COc1ccc(CCN(Cc2ccc(C(=O)O)cc2)c2nc3ccc(C(F)(F)F)cc3s2)cc1 [Example 119, 4-({[2-(4-methoxyphenyl)ethyl][6-(trifluoromethyl)benzo[d]thiazol-2-yl]amino}methyl)benzoic acid] |
| < 1 | COc1ccc(CCN(Cc2ccc(C(=O)O)cc2)c2nc3cc(C(F)(F)F)ccc3s2)cc1 [Example 120, 4-({[2-(4-methoxyphenyl)ethyl][5-(trifluoromethyl)benzo[d]thiazol-2-yl]amino}methyl)benzoic acid] |
| > 10 | COc1ccc(CCN(Cc2ccc(C(=O)O)cc2)c2nc3ccc(C(F)(F)F)c(F)c3s2)cc1 [Example 121, 4-({[7-fluoro-6-(trifluoromethyl)benzo[d]thiazol-2-yl][2-(4-methoxyphenyl)ethyl]amino}methyl)benzoic acid] |
| < 1 | COc1ccc(CCN(c2nc3cc(F)cc(F)c3s2)C(C)c2ccc(C(=O)O)cc2)cc1F (centres unmarked) [Example 122, 4-(1-{(5,7-difluorobenzo[d]thiazol-2-yl)[2-(3-fluoro-4-methoxyphenyl)ethyl]amino}ethyl)benzoic acid] |
| < 1 | COc1ccc(CCN(c2nc3cc(C(F)(F)F)ccc3s2)C(C)c2ccc(C(=O)O)cc2)cc1 (centres unmarked) [Example 124, 4-(1-{[2-(4-methoxyphenyl)ethyl][5-(trifluoromethyl)benzo[d]thiazol-2-yl]amino}ethyl)benzoic acid] |
